Measurements taken from patent US20260200926A1, “TREM2 MODULATORS” (Muna Therapeutics ApS, priority 2022, published 2026).

Molecular target: T1, Human TREM2 (Homo sapiens, UniProt Q9NZC2)
T1 construct: expressed in transfected cells
Experiment: Human TREM2 activity: cellular phosphorylation of Syk (AlphaLISA SureFire Ultra p-SYK) in HEK293/DAP12+TREM2 stable cell line
Format: cell-based
Details: for Emax: HEK293, maximal response relative to reference agonist example 1B (remaining examples), read-out: Emax; for EC50: phospho-Syk AlphaLISA signal, HEK293/DAP12+TREM2 cells, concentration giving 50% of maximal response, read-out: EC50
Description: Human TREM2, in vitro Measurement of Triggering Receptor Expressed on Myeloid Cells 2 activity using cellular phosphorylation of Spleen Tyrosine Kinase (“Syk”) Assay
HEK-293 cells were co-transfected with separate plasmids encoding TREM2 and DAP12 to generate a stable cell line. After antibiotic selection, functional clone pool analysis and two successive limiting dilutions, the final clone “HEK293/DAP12+TREM2” underwent a qPCR analysis and a pharmacological validation.
TREM2 signaling through DAP12 was monitored in the HEK293/DAP12+TREM2 stable cell line by measuring the phosphorylation levels of the Syk kinase using the commercially available AlphaLISA SureFire Ultra p-SYK (Tyr525/526) Assay Kit (PerkinElmer #ALSU-PSYK), based on the Perkin Elmer AlphaScreen/AlphaLISA technology.
Compounds are transferred to the test plate and tested in full dose response, 8 concentrations in quadruplicate data points. Compound serial dilutions were performed at Cybi-Felix instrument in 100% DMSO and the dose response curves were assembled in automated fashion in 384MPT at Hamilton STARlet instrument. All the stock solutions were prepared at 20 mM in 100% DMSO. For compounds testing, the starting concentration was 100 μM, dilution steps 1:6. […] Finally, a 384MPT reformatted for all compounds at 8 concentrations, quadruplicates, was used as “mother to child” process with a CyBi®-Well dispenser in which 1 μL of each compound was moved into a destination plate pre-filled with 65.6 μL of EMEM cell culture medium (BIOWHITTAKER_cat.BE12-125F), thus obtaining 3× concentrated compounds working solution. In columns 1-2 and 23-24 the control wells were added. In particular, dose response curves of a reference control agonist were included in column 1 and 24 as reference control agonist (Reference control agonists used include Human TREM2 polyclonal Antibody AF1828: R&D Systems; Human TREM2 monoclonal Antibody MAB1828: R&D Systems). The dose response curves were tested starting at 30 μM, dilution step 1:6. Both “source” compound plate and “destination” compound plate were barcoded and a relationship between the two plates was thus generated.
HEK293/DAP12+TREM2 cells were cultured in EMEM medium supplemented with IX Penicillin/Streptomycin (BIOWHITTAKER_cat.DE17-602E), ULTRAGLUTAMINE I 200 mM, 10% Fetal Bovine Serum plus antibiotics referred to as “HEK293 Culture Medium”. The day before the experiment, cells were detached by gentle wash with DPBS, followed by 5 min incubation at 37° C. with Trypsin solution. Cells were then diluted in HEK293 Culture Medium without antibiotics, counted and seeded into 384-well poly-D-Lysine coated microplates black/clear bottom (GREINER 781946) at a density of 10,000 cells/well in 25 μL/well by the use of a MATRIX WellMate dispenser. Plates were placed into a humidified cell culture incubator at 37° C. with 5% CO2 until the experimental day. 20-24 hours after seeding mature medium was removed and replaced with 10 μL/well of EMEM cell medium supplemented with 0.1% Pluronic F-68 non-ionic surfactant (Thermofisher, 24040032), referred to as “Assay Buffer”, using the CyBi®-Well instrument. Then 5 μL/well of Assay Buffer containing 3× concentrated test compounds or the reference control agonist (in 0.5% final DMSO concentration) were added to the cells with the CyBi®-Well instrument. Cell plates were incubated for 30 min into a humidified cell culture incubator at 37° C. with 5% CO2·, then the medium was removed by manually discard. 20 μL/well of lysis buffer were dispensed using the CyBi®-Well instrument and plates were incubated for 10 min at room temperature on a plate shaker (350 rpm). Then, 10 μL/well of lysate were transferred to the Alpha plates. The CyBi®-Well instrument was used to dispense 5 μL/well of AlphaLISA Acceptor Bead Solution in IX Immunoassay buffer (Perkin Elmer AL000F). Then the plates were sealed with Heat sealing foil, shaked for 2 minutes (350 rpm) and incubated for 1 hour at room temperature.

T1 sequence (Q9NZC2 19-230): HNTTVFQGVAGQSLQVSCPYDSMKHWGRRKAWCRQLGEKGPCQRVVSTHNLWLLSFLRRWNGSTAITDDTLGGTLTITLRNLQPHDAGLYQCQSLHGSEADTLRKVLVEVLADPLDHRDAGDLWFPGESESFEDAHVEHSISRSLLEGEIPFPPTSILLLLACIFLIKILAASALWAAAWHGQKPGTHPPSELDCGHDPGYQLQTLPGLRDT
T1 sequence (O43914 22-113 partner): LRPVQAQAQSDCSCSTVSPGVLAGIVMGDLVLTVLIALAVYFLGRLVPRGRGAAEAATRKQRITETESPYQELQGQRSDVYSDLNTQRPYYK

Compound | Emax | EC50
Cc1nc2c(-c3ccc(C(F)(F)F)cc3F)cc([C@H]3CCO[C@@H](c4cnn(C5CC5)c4)C3)cc2c(=O)n1C (single isomer, unassigned) [Example 118B] | < 75% | > 1000 nM
Cc1nc2c(-c3ccc(Cl)cc3F)cc([C@@H]3CCO[C@H](c4cnn(C5CC5)c4)C3)cc2c(=O)n1C (single isomer, unassigned) [Example 119A] | < 75% | 100 to 1000 nM
Cc1nc2c(-c3ccc(F)cc3F)nc([C@@H]3CCO[C@H](c4cnn(C5CC5)c4)C3)nc2c(=O)n1C (single isomer, unassigned) [Example 120A] | < 75% | > 1000 nM
Cc1nc2c(-c3ccc(F)cc3F)nc(N3C[C@@H](c4cnn(C)c4)OC(C)(C)C3)nc2c(=O)n1C (single isomer, unassigned) [Example 121A] | < 75% | 100 to 1000 nM
Cc1nc2c(-c3ccc(F)cc3F)nc(N3C[C@H](c4cnn(C)c4)OC(C)(C)C3)nc2c(=O)n1C (single isomer, unassigned) [Example 121B] | < 75% | > 1000 nM
Cc1cc([C@H]2CN(c3nc(-c4ccc(F)cc4F)c4nc(C)n(C)c(=O)c4n3)CCO2)ccn1 (single isomer, unassigned) [Example 122B] | < 75% | 100 to 1000 nM
Cc1nc2c(-c3ccc(C(F)(F)F)cc3F)nc(N3CCO[C@H](c4cnn(C)c4)C3)cc2c(=O)n1C (single isomer, unassigned) [Example 126B] | < 75% | 100 to 1000 nM
Cc1nc2c(-c3ccc(C(F)(F)F)nc3)nc(N3CCO[C@@H](c4cnn(C)c4)C3)cc2c(=O)n1C (single isomer, unassigned) [Example 127A] | < 75% | 100 to 1000 nM
Cc1nc2c(-c3ccc(C(F)(F)F)nc3)nc(N3CCO[C@H](c4cnn(C)c4)C3)cc2c(=O)n1C (single isomer, unassigned) [Example 127B] | < 75% | > 1000 nM
Cc1cc([C@H]2CN(c3cc4c(=O)n(C)c(C)nc4c(-c4ccc(Cl)cc4F)n3)CC3(CC3)O2)ccn1 (single isomer, unassigned) [Example 128B] | 75 to 110% | 100 to 1000 nM
Cc1nc2c(-c3cc(F)c(F)cc3F)nc(N3CCO[C@H](c4cnn(C)c4)C3)cc2c(=O)n1C (single isomer, unassigned) [Example 130B] | < 75% | 100 to 1000 nM
Cc1nc2c(-c3ccc(Cl)cc3F)nc(N3CCO[C@@H](c4cnn(C5CC5)c4)C3)cc2c(=O)n1C (single isomer, unassigned) [Example 131B] | < 75% | 100 to 1000 nM
Cc1nc2c(-c3ccc(C(F)(F)F)cc3F)nc(N3CCO[C@@H](c4cnn(C5CC5)c4)C3)cc2c(=O)n1C (single isomer, unassigned) [Example 132B] | < 75% | 100 to 1000 nM
Cc1nc2c(-c3cc(F)c(F)cc3F)nc(N3CCO[C@@H](c4cnn(C5CC5)c4)C3)cc2c(=O)n1C (single isomer, unassigned) [Example 133B] | < 75% | 100 to 1000 nM

Further lines, results first:

Emax | EC50 | Compound
< 75% | 100 to 1000 nM | Cc1nc2c(-c3ccc(Cl)cc3F)nc([C@@]34CCO[C@@H](c5cnn(C6CC6)c5)[C@@H]3C4)nc2c(=O)n1C (single isomer, unassigned) [Example 116B]
75 to 110% | 10 to 100 nM | Cc1nc2c(-c3ccc(Cl)cc3F)cc(N3C[C@@H](c4cnn(C)c4)OC(C)(C)C3)cc2c(=O)n1C (single isomer, unassigned) [Example 117A]
< 75% | 100 to 1000 nM | Cc1nc2c(-c3ccc(Cl)cc3F)cc(N3C[C@H](c4cnn(C)c4)OC(C)(C)C3)cc2c(=O)n1C (single isomer, unassigned) [Example 117B]
75 to 110% | 10 to 100 nM | Cc1nc2c(-c3ccc(C(F)(F)F)cc3F)cc([C@@H]3CCO[C@H](c4cnn(C5CC5)c4)C3)cc2c(=O)n1C (single isomer, unassigned) [Example 118A]
75 to 110% | 1 to 10 nM | Cc1nc2c(-c3ccc(Cl)cc3F)cc([C@H]3CCO[C@@H](c4cnn(C5CC5)c4)C3)cc2c(=O)n1C (single isomer, unassigned) [Example 119B]
75 to 110% | 1 to 10 nM | Cc1cc([C@@H]2CN(c3nc(-c4ccc(F)cc4F)c4nc(C)n(C)c(=O)c4n3)CCO2)ccn1 (single isomer, unassigned) [Example 122A]
> 110% | 1 to 10 nM | Cc1cc([C@@H]2CN(c3nc(-c4cc(F)c(F)cc4F)c4nc(C)n(C)c(=O)c4n3)CCO2)ccn1 (single isomer, unassigned) [Example 123A]
75 to 110% | 10 to 100 nM | Cc1cc([C@H]2CN(c3nc(-c4cc(F)c(F)cc4F)c4nc(C)n(C)c(=O)c4n3)CCO2)ccn1 (single isomer, unassigned) [Example 123B]
75 to 110% | 10 to 100 nM | Cc1cc([C@@H]2CN(c3nc(-c4ccc(C(F)(F)F)cc4F)c4nc(C)n(C)c(=O)c4n3)CC(C)(C)O2)ccn1 (single isomer, unassigned) [Example 124A]
75 to 110% | 1 to 10 nM | Cc1cc([C@H]2CN(c3nc(-c4ccc(C(F)(F)F)cc4F)c4nc(C)n(C)c(=O)c4n3)CC(C)(C)O2)ccn1 (single isomer, unassigned) [Example 124B]
75 to 110% | 10 to 100 nM | Cc1nc2c(-c3ccc(Cl)cc3F)nc(N3CCO[C@@H](c4cnn(C)c4)C3)cc2c(=O)n1C (single isomer, unassigned) [Example 125A]
< 75% | 10 to 100 nM | Cc1nc2c(-c3ccc(Cl)cc3F)nc(N3CCO[C@H](c4cnn(C)c4)C3)cc2c(=O)n1C (single isomer, unassigned) [Example 125B]
75 to 110% | 1 to 10 nM | Cc1nc2c(-c3ccc(C(F)(F)F)cc3F)nc(N3CCO[C@@H](c4cnn(C)c4)C3)cc2c(=O)n1C (single isomer, unassigned) [Example 126A]
75 to 110% | 10 to 100 nM | Cc1nc2c(-c3ccc(F)cc3F)nc(N3CCO[C@@H](c4cnn(C)c4)C3)cc2c(=O)n1C (single isomer, unassigned) [Example 129A]
< 75% | 10 to 100 nM | Cc1nc2c(-c3ccc(F)cc3F)nc(N3CCO[C@H](c4cnn(C)c4)C3)cc2c(=O)n1C (single isomer, unassigned) [Example 129B]
< 75% | 10 to 100 nM | Cc1nc2c(-c3cc(F)c(F)cc3F)nc(N3CCO[C@@H](c4cnn(C)c4)C3)cc2c(=O)n1C (single isomer, unassigned) [Example 130A]
75 to 110% | 1 to 10 nM | Cc1nc2c(-c3ccc(Cl)cc3F)nc(N3CCO[C@H](c4cnn(C5CC5)c4)C3)cc2c(=O)n1C (single isomer, unassigned) [Example 131A]
75 to 110% | 1 to 10 nM | Cc1nc2c(-c3ccc(C(F)(F)F)cc3F)nc(N3CCO[C@H](c4cnn(C5CC5)c4)C3)cc2c(=O)n1C (single isomer, unassigned) [Example 132A]
75 to 110% | 10 to 100 nM | Cc1nc2c(-c3cc(F)c(F)cc3F)nc(N3CCO[C@H](c4cnn(C5CC5)c4)C3)cc2c(=O)n1C (single isomer, unassigned) [Example 133A]
75 to 110% | 10 to 100 nM | Cc1nc2c(-c3ccc(C(F)(F)F)cc3F)nc(N3C[C@@H](c4cnn(C)c4)OC(C)(C)C3)cc2c(=O)n1C (single isomer, unassigned) [Example 134A]
